From ChEMBL document CHEMBL1156053, “Design, synthesis, protein-ligand X-ray structure, and biological evaluation of a series of novel macrocyclic human immunodeficiency virus-1 protease inhibitors to combat drug resistance” (J Med Chem, 2009) come the findings set out here.

One assay concerns the target Protease (Human immunodeficiency virus 1, UniProt Q9YQ12). Kind of assay: Inhibition of HIV1 protease.
The test system of assay [1] is Human immunodeficiency virus 1. The experiment in a line: Antiviral activity against HIV1 LAI infected in human MT2 cells by MTT assay. The class given is functional, organism-based. The conditions noted are these: Human immunodeficiency virus 1, M:B_Lai. For orientation: Tetrazolium assays rely on reduction of a dye to a coloured formazan, in cell work by metabolically active cells.

The test system of assay [2] is Human immunodeficiency virus 1. Kind of assay: Antiviral activity against wild type HIV1 isolate ERS104pre infected in PHA-stimulated human PBMC assessed as inhibition of p24 […] protein production. Format: functional, organism-based. The note with it: Human immunodeficiency virus 1, isolate ERS104pre.
In assay [3] the test system is Human immunodeficiency virus 1. Kind of assay: Antiviral activity against multidrug-resistant HIV1 isolate B infected in PHA-stimulated human PBMC assessed as inhibition of p24 […] protein production. The class given is functional, organism-based. The note with it: Human immunodeficiency virus 1, isolate B.
The test system of assay [4] is Human immunodeficiency virus 1. The experiment in a line: Antiviral activity against multidrug-resistant HIV1 isolate C infected in PHA-stimulated human PBMC assessed as inhibition of p24 […] protein production. Format: functional, organism-based. The note with it: Human immunodeficiency virus 1, isolate C.
Assay [5] relates to Human immunodeficiency virus 1. The experiment in a line: Antiviral activity against multidrug-resistant HIV1 isolate G infected in PHA-stimulated human PBMC assessed as inhibition of p24 […] protein production. Format: functional, organism-based. The note with it: Human immunodeficiency virus 1, isolate G.
Assay [6] relates to Human immunodeficiency virus 1. Kind of assay: Antiviral activity against multidrug-resistant HIV1 isolate TM infected in PHA-stimulated human PBMC assessed as inhibition of p24 […] protein production. The class given is functional, organism-based. The note with it: Human immunodeficiency virus 1, isolate TM.
The test system of assay [7] is Human immunodeficiency virus 1. The experiment in a line: Antiviral activity against multidrug-resistant HIV1 isolate MM infected in PHA-stimulated human PBMC assessed as inhibition of p24 […] protein production. The class given is functional, organism-based. The note with it: Human immunodeficiency virus 1, isolate MM.
Assay [8] deals with Human immunodeficiency virus 1. The experiment in a line: Antiviral activity against multidrug-resistant HIV1 isolate JSL infected in PHA-stimulated human PBMC assessed as inhibition of p24 […] protein production. Format: functional, organism-based. The conditions noted are these: Human immunodeficiency virus 1, isolate JSL.
For assay [9], the system named is Human immunodeficiency virus 1. The experiment in a line: Selectivity ratio of IC50 for multidrug-resistant HIV1 isolate B to IC50 for wild type HIV1 isolate ERS104pre. Format: functional.
For assay [10], the system named is Human immunodeficiency virus 1. Kind of assay: Selectivity ratio of IC50 for multidrug-resistant HIV1 isolate C to IC50 for wild type HIV1 isolate ERS104pre. The class given is functional.
The subject of assay [11] is Human immunodeficiency virus 1. Kind of assay: Selectivity ratio of IC50 for multidrug-resistant HIV1 isolate G to IC50 for wild type HIV1 isolate ERS104pre. Format: functional.
Assay [12] relates to Human immunodeficiency virus 1. The experiment in a line: Selectivity ratio of IC50 for multidrug-resistant HIV1 isolate TM to IC50 for wild type HIV1 isolate ERS104pre. The class given is functional.
In assay [13] the test system is Human immunodeficiency virus 1. Kind of assay: Selectivity ratio of IC50 for multidrug-resistant HIV1 isolate MM to IC50 for wild type HIV1 isolate ERS104pre. The class given is functional.
In assay [14] the test system is Human immunodeficiency virus 1. Kind of assay: Selectivity ratio of IC50 for multidrug-resistant HIV1 isolate JSL to IC50 for wild type HIV1 isolate ERS104pre. The class given is functional.

By Ki is commonly meant a dissociation constant, usually derived from enzyme kinetics or from competition with a known ligand. The low end stands for tighter binding, the high end for weaker binding. What is called IC50 is the concentration needed to halve the response being measured.

Chain of Protease (Q9YQ12 whole entry): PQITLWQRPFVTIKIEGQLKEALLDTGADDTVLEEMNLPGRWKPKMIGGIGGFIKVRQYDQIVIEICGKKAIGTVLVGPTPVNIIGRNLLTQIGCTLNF

For `C=CCCCOc1cc(OC)ccc1S(=O)(=O)N(CC=C)C[C@@H](O)[C@H](Cc1ccccc1)NC(=O)O[C@H]1CO[C@H]2OCC[C@H]21`, on Protease, the Ki is 1.02 nM. Further, in assay [1], it took 290 nM to reach half-maximal inhibition (IC50).
Compound `COc1ccc2c(c1)OC/C=C\CN(C[C@@H](O)[C@H](Cc1ccccc1)NC(=O)O[C@H]1CO[C@H]3OCC[C@H]31)S2(=O)=O` registered a Ki on Protease of 2.4 nM.
`COc1ccc2c(c1)OCCCCCN(C[C@@H](O)[C@H](Cc1ccccc1)NC(=O)O[C@H]1CO[C@H]3OCC[C@H]31)S2(=O)=O` yielded a Ki on Protease of 0.09 nM. This compound yielded a 50% inhibitory concentration (IC50) in assay [1] of 5.5 nM.
Regarding `CC(C)CN(C[C@@H](O)[C@H](Cc1ccccc1)NC(=O)O[C@H]1CCOC1)S(=O)(=O)c1ccc(N)cc1`, the IC50 in assay [2] was 30 nM; in assay [3], above 1000 nM; in assay [4] it was 370 nM; in assay [5] it was 430 nM; in assay [6], 320 nM; in assay [7] it was 210 nM. Besides, the IC50 in [8] came to 620 nM.
Take `Cc1cccc(C)c1OCC(=O)N[C@@H](Cc1ccccc1)[C@@H](O)C[C@H](Cc1ccccc1)NC(=O)[C@H](C(C)C)N1CCCNC1=O` [LOPINAVIR]: the IC50 was 34 nM in assay [2]; above 1000 nM in [3]; above 1000 nM in assay [4]; 260 nM in [5]; above 1000 nM in assay [6]; above 1000 nM in assay [7]. The IC50 in assay [8] is above 1000 nM. The “Ratio IC50” value in assay [9] is listed as above 29; in [10], above 29; in assay [11] it was 8; in assay [12], above 29; in assay [13] it was above 29; in assay [14], above 29.
`COc1ccc2c(c1)OCCC/C=C\CN(C[C@@H](O)[C@H](Cc1ccccc1)NC(=O)O[C@H]1CO[C@H]3OCC[C@H]31)S2(=O)=O` gave a Ki at Protease of 0.077 nM. The compound also gave an IC50 in assay [1] of 20 nM.
Regarding `CC(C)(C)NC(=O)[C@@H]1C[C@@H]2CCCC[C@@H]2CN1C[C@@H](O)[C@H](Cc1ccccc1)NC(=O)[C@H](CC(N)=O)NC(=O)c1ccc2ccccc2n1`, the IC50 in assay [2] was 8 nM; in assay [3], 270 nM; in [4], 32 nM; in assay [5], 30 nM; in [6], 260 nM; in [7], 190 nM. Further, the concentration for half-maximal inhibition (IC50) in [8] came out at 300 nM.
In the case of `C=CCOc1cc(OC)ccc1S(=O)(=O)N(CC=C)C[C@@H](O)[C@H](Cc1ccccc1)NC(=O)O[C@H]1CO[C@H]2OCC[C@H]21`, the Ki at Protease came out at 0.1 nM.
As for `C=CCCCCOc1cc(OC)ccc1S(=O)(=O)N(CCCCC=C)C[C@@H](O)[C@H](Cc1ccccc1)NC(=O)O[C@H]1CO[C@H]2OCC[C@H]21`, the affinity at Protease corresponds to a Ki of 16.5 nM. In [1], the IC50 is above 1000 nM.
The corresponding values for `COc1ccc2c(c1)OC/C=C\CCCCN(C[C@@H](O)[C@H](Cc1ccccc1)NC(=O)O[C@H]1CO[C@H]3OCC[C@H]31)S2(=O)=O` are 0.058 nM and 14 nM.
`COc1ccc2c(c1)OCCC/C=C\CC[C@@H](C)CN(C[C@@H](O)[C@H](Cc1ccccc1)NC(=O)O[C@H]1CO[C@H]3OCC[C@H]31)S2(=O)=O` yielded a Ki on Protease of 6 nM. This compound also returned an IC50 in assay [1] of 200 nM.
In the same order, the values of `C=CCCCCOc1cc(OC)ccc1S(=O)(=O)N(C[C@@H](O)[C@H](Cc1ccccc1)NC(=O)O[C@H]1CO[C@H]2OCC[C@H]21)CC(C)(C)CC=C` are 82 nM and above 1000 nM.
The corresponding values for `COc1ccc2c(c1)OCCC/C=C/CC[C@H](C)CN(C[C@@H](O)[C@H](Cc1ccccc1)NC(=O)O[C@H]1CO[C@H]3OCC[C@H]31)S2(=O)=O` are 0.15 nM and 52 nM.
The compound `COc1ccc(S(=O)(=O)N(CC(C)C)C[C@@H](O)[C@H](Cc2ccccc2)NC(=O)O[C@H]2CO[C@H]3OCC[C@H]32)cc1` showed an IC50 in assay [1] of 1.2 nM.
As for `COc1ccc2c(c1)OCCCCCCC[C@H](C)CN(C[C@@H](O)[C@H](Cc1ccccc1)NC(=O)O[C@H]1CO[C@H]3OCC[C@H]31)S2(=O)=O`, the Ki at Protease worked out at 0.07 nM. In assay [1], this compound showed an IC50 of 170 nM.
In turn, `C=CCCCCOc1cc(OC)ccc1S(=O)(=O)N(CC(C)CC=C)C[C@@H](O)[C@H](Cc1ccccc1)NC(=O)O[C@H]1CO[C@H]2OCC[C@H]21` (stereo partly drawn) registered a Ki on Protease of 15 nM. This compound also yielded an IC50 in assay [1] of 380 nM.
In the same order, the values of `COc1ccc2c(c1)OCCC/C=C/CCC(C)(C)CN(C[C@@H](O)[C@H](Cc1ccccc1)NC(=O)O[C@H]1CO[C@H]3OCC[C@H]31)S2(=O)=O` are 6.9 nM and above 1000 nM.
`COc1ccc2c(c1)OCCCCCCN(C[C@@H](O)[C@H](Cc1ccccc1)NC(=O)O[C@H]1CO[C@H]3OCC[C@H]31)S2(=O)=O`: the affinity at Protease, expressed as Ki, was 0.15 nM. The compound also had an IC50 in [1] of 95 nM.
Consider `C=CCCCCOc1cc(OC)ccc1S(=O)(=O)N(C[C@@H](C)CC=C)C[C@@H](O)[C@H](Cc1ccccc1)NC(=O)O[C@H]1CO[C@H]2OCC[C@H]21`, for which the Ki on Protease was 58 nM. The IC50 in assay [1] is above 1000 nM.
Regarding `COc1ccc2c(c1)OCCCCCCCC(C)(C)CN(C[C@@H](O)[C@H](Cc1ccccc1)NC(=O)O[C@H]1CO[C@H]3OCC[C@H]31)S2(=O)=O`, the affinity at Protease corresponds to a Ki of 6.8 nM. In addition, in assay [1], the IC50 was above 1000 nM.
For `COc1ccc2c(c1)OCCCCCCCCN(C[C@@H](O)[C@H](Cc1ccccc1)NC(=O)O[C@H]1CO[C@H]3OCC[C@H]31)S2(=O)=O`, at Protease, the affinity corresponds to a Ki of 0.47 nM. Inhibition in assay [1] was half-maximal at 22 nM (IC50).
`C=CCCCCN(C[C@@H](O)[C@H](Cc1ccccc1)NC(=O)O[C@H]1CO[C@H]2OCC[C@H]21)S(=O)(=O)c1ccc(OC)cc1OCCC=C` gave a Ki at Protease of 6.9 nM.
On Protease, `COc1ccc2c(c1)OCC/C=C\CN(C[C@@H](O)[C@H](Cc1ccccc1)NC(=O)O[C@H]1CO[C@H]3OCC[C@H]31)S2(=O)=O` had a Ki of 0.051 nM. Half-maximal inhibition in assay [1] (IC50) required 15 nM.
Take `COc1ccc2c(c1)OCCCCCCC[C@@H](C)CN(C[C@@H](O)[C@H](Cc1ccccc1)NC(=O)O[C@H]1CO[C@H]3OCC[C@H]31)S2(=O)=O`: on Protease, the Ki was 3.7 nM. Moreover, the IC50 in [1] was 650 nM.
Take `C=CCCCCN(C[C@@H](O)[C@H](Cc1ccccc1)NC(=O)O[C@H]1CO[C@H]2OCC[C@H]21)S(=O)(=O)c1ccc(OC)cc1OCC=C`: the affinity at Protease, expressed as Ki, was 10 nM.
Regarding `C=CCCCCN(C[C@@H](O)[C@H](Cc1ccccc1)NC(=O)O[C@H]1CO[C@H]2OCC[C@H]21)S(=O)(=O)c1ccc(OC)cc1OCCCC=C`, on Protease, the Ki came out at 11.5 nM. For the same compound, the IC50 in assay [1] is above 1000 nM.
In the same order, the values of `COc1ccc2c(c1)OCCC/C=C\CC[C@H](C)CN(C[C@@H](O)[C@H](Cc1ccccc1)NC(=O)O[C@H]1CO[C@H]3OCC[C@H]31)S2(=O)=O` are 0.31 nM and 9 nM.
The corresponding values for `COc1ccc2c(c1)OCCCCCCCCCCN(C[C@@H](O)[C@H](Cc1ccccc1)NC(=O)O[C@H]1CO[C@H]3OCC[C@H]31)S2(=O)=O` are 0.82 nM and 318 nM.
At Protease, `C=CCCOc1cc(OC)ccc1S(=O)(=O)N(CC=C)C[C@@H](O)[C@H](Cc1ccccc1)NC(=O)O[C@H]1CO[C@H]2OCC[C@H]21` registered a Ki of 0.63 nM.
Regarding `C=CCCCCOc1cc(OC)ccc1S(=O)(=O)N(CC=C)C[C@@H](O)[C@H](Cc1ccccc1)NC(=O)O[C@H]1CO[C@H]2OCC[C@H]21`, on Protease, the Ki came to 1.7 nM. The compound also registered an IC50 in assay [1] of 270 nM.
`COc1ccc2c(c1)OCCCCCCCCCN(C[C@@H](O)[C@H](Cc1ccccc1)NC(=O)O[C@H]1CO[C@H]3OCC[C@H]31)S2(=O)=O` registered a Ki at Protease of 0.67 nM. Also, the midpoint of inhibition in assay [1], the IC50, lay at 49 nM.
In the same order, the values of `COc1ccc2c(c1)OCCCCCCCN(C[C@@H](O)[C@H](Cc1ccccc1)NC(=O)O[C@H]1CO[C@H]3OCC[C@H]31)S2(=O)=O` are 0.017 nM and 14 nM.
In the same order, the values of `COc1ccc2c(c1)OCCC/C=C/CC[C@@H](C)CN(C[C@@H](O)[C@H](Cc1ccccc1)NC(=O)O[C@H]1CO[C@H]3OCC[C@H]31)S2(=O)=O` are 2.8 nM and 6.3 nM.
The corresponding values for `COc1ccc2c(c1)OCCCC/C=C\CN(C[C@@H](O)[C@H](Cc1ccccc1)NC(=O)O[C@H]1CO[C@H]3OCC[C@H]31)S2(=O)=O` are 0.08 nM and 23 nM.
